Tests used:
Escherichia coli [1] = assay: Antimicrobial activity against Escherichia coli ATCC 25922 assessed as reduction in microbial growth by CLSI based broth microdilution method; format: functional
Escherichia coli [2] = assay: Antimicrobial activity against Escherichia coli UB 1005 assessed as reduction in microbial growth by CLSI based broth microdilution method; format: functional
Escherichia coli [3] = assay: Antimicrobial activity against Escherichia coli K88 assessed as reduction in microbial growth by CLSI based broth microdilution method; format: functional
Escherichia coli [4] = assay: Antimicrobial activity against Escherichia coli K99 assessed as reduction in microbial growth by CLSI based broth microdilution method; format: functional
Escherichia coli [5] = assay: Antimicrobial activity against Escherichia coli 078 assessed as reduction in microbial growth by CLSI based broth microdilution method; format: functional
Salmonella typhimurium [6] = assay: Antimicrobial activity against Salmonella typhimurium ATCC 14028 assessed as reduction in microbial growth by CLSI based broth microdilution method; format: functional, Salmonella enterica subsp. enterica serovar Typhimurium; details: Salmonella enterica
Salmonella typhimurium [7] = assay: Antimicrobial activity against Salmonella typhimurium ATCC 7731 assessed as reduction in microbial growth by CLSI based broth microdilution method; format: functional, Salmonella enterica subsp. enterica serovar Typhimurium; details: Salmonella enterica
[8] = Antimicrobial activity against Salmonella enterica subsp. enterica serovar Pullorum ATCC 7913 assessed as reduction in microbial growth by CLSI based broth microdilution method; format: functional
Pseudomonas aeruginosa = assay: Antimicrobial activity against Pseudomonas aeruginosa ATCC 27853 assessed as reduction in microbial growth by CLSI based broth microdilution method; format: functional
Staphylococcus aureus [9] = assay: Antimicrobial activity against Staphylococcus aureus ATCC 25923 assessed as reduction in microbial growth by CLSI based broth microdilution method; format: functional
Staphylococcus aureus [10] = assay: Antimicrobial activity against Staphylococcus aureus ATCC 29213 assessed as reduction in microbial growth by CLSI based broth microdilution method; format: functional
[11] = test system: Staphylococcus epidermidis; assay: Antimicrobial activity against Staphylococcus epidermidis ATCC 12228 assessed as reduction in microbial growth by CLSI based broth microdilution method; format: functional
Staphylococcus aureus [12] = assay: Antimicrobial activity against Staphylococcus aureus 43300 assessed as reduction in microbial growth by CLSI based broth microdilution method; format: functional
Enterococcus faecalis = assay: Antimicrobial activity against Enterococcus faecalis ATCC 29212 assessed as reduction in microbial growth by CLSI based broth microdilution method; format: functional
Escherichia coli [13] = assay: Drug resistance, ratio of MIC for Escherichia coli ATCC 25922 after 30 passages to MIC for Escherichia coli ATCC 25922 […] after initial exposure; format: functional

MIC (Escherichia coli [1]) | MIC (Escherichia coli [2]) | MIC (Escherichia coli [3]) | MIC (Escherichia coli [4]) | MIC (Escherichia coli [5]) | MIC (Salmonella typhimurium [6]) | MIC (Salmonella typhimurium [7]) | MIC [8] | MIC (Pseudomonas aeruginosa) | MIC (Staphylococcus aureus [9]) | MIC (Staphylococcus aureus [10]) | MIC [11] | MIC (Staphylococcus aureus [12]) | MIC (Enterococcus faecalis) | Compound | Ratio (Escherichia coli [13])
8190 µg/mL | 16.4 mg/mL | 16.4 mg/mL | 8190 µg/mL | 8190 µg/mL | 8190 µg/mL | 8190 µg/mL | 8190 µg/mL | 4100 µg/mL | 1020 µg/mL | 1020 µg/mL | 4100 µg/mL | 1020 µg/mL | 4100 µg/mL | CC(C)=CCC/C(C)=C/C=O [CITRAL] | –
16400 µg/mL | 16.4 mg/mL | 32.8 mg/mL | 32800 µg/mL | 32800 µg/mL | 32800 µg/mL | 32800 µg/mL | 32800 µg/mL | 16400 µg/mL | 16400 µg/mL | 4100 µg/mL | 16400 µg/mL | 4100 µg/mL | 1020 µg/mL | CC(C)=CCCC(C)CC=O (stereo not drawn) | –
– | – | – | – | – | – | – | – | – | – | – | – | – | – | O=C(O)c1cn(C2CC2)c2cc(N3CCNCC3)c(F)cc2c1=O [CIPROFLOXACIN] | 2

Compound | MIC (Escherichia coli [1]) | MIC (Escherichia coli [2]) | MIC (Escherichia coli [3]) | MIC (Escherichia coli [4]) | MIC (Escherichia coli [5]) | MIC (Salmonella typhimurium [6]) | MIC (Salmonella typhimurium [7]) | MIC [8] | MIC (Pseudomonas aeruginosa) | MIC (Staphylococcus aureus [9]) | MIC (Staphylococcus aureus [10]) | MIC [11] | MIC (Staphylococcus aureus [12]) | MIC (Enterococcus faecalis) | Ratio (Escherichia coli [13])
Cc1ccc(C(C)C)c(O)c1 [THYMOL] | 256 µg/mL | 0.256 mg/mL | 0.128 mg/mL | 256 µg/mL | 64 µg/mL | 256 µg/mL | 128 µg/mL | 256 µg/mL | 256 µg/mL | 256 µg/mL | 256 µg/mL | 128 µg/mL | 256 µg/mL | 256 µg/mL | –

Reference: ChEMBL document CHEMBL6087462, “Cuminaldehyde Potentiates Antiproteolytic Peptide Efficacy via Parallel Pathways of Enhanced Inner Membrane-Damaging Activity and Inhibition of Bacterial Energy Metabolism” (J Med Chem, 2025)
